{"source": "patent US12708620B2", "about": "“Prodrugs and medical uses thereof” (priority 2018, dated 2026)", "key": {"[1]": {"test_system": "panel of cancer cell lines", "experiment": "cytotoxicity across the tested cancer cell lines (summary statements)", "format": "cell-based, human", "experimental": "The IC50 values were obtained using the resazurin-based potency assay under anoxic (<0.01% O2) and/or normoxic conditions (21% O2). The hypoxia cytotoxicity ratio (HCR) is calculated as the ratio of IC50 value […] (HCR=IC50 normoxia/IC50 anoxia).\nFor anoxic condition, the complete medium for each cell line (25 ml in a T25 or 80 ml in a T80) was equilibrated in the anoxic chamber 48 h before use to allow an as large as possible interchange between media and atmosphere, agitating the flask once a day and just before use. The 96-well plates for cell seeding and the 96-well plates for preparation of a mother plate containing the compound to be tested (e.g. Cpd.11 Ms) at appropriate concentrations as well as disposable reagent reservoirs and pipet tips that are required for cell seeding under anoxic conditions were placed in anoxia at least 72 h before use. […]\nCell seeding was performed starting from a cell suspension (70% confluent flasks of cells). Appropriate cell numbers/volumes were used at the pre-determined cell density (typically 100 μl/well) as determined by performing a growth curve experiment were calculated. […]"}, "[2]": {"experiment": "preliminary toxicology study, intravenous administration", "format": "in vivo, rat", "experimental": "Preliminary toxicology studies of the intravenous administration of Cpd.11 Ms in rats and dogs according to a dosing regimen consisting of 3 consecutive days of administration in a 3 weekly cycle (QDx3/cycle) have shown that potential haematological toxicity in tissues such as the bone marrow, the thymus and lymph nodes (known to have hypoxic niches) can be minimized at dosages at or below 400 mg/kg in the rat and at or below 100 mg/kg in the dog. As such, these levels correspond to 2360 mg/m^2 and 2000 mg/m^2, respectively, in human subjects. […] Alternative dosing regimens also include weekly administration for up to 3 or 4 consecutive times of each 3 or 4 weekly cycle. In addition, also an initial dose of QDx3 or QDx5 could be combined with less frequent administration schedules that may still allow a therapeutic effect over tumor growth and development, such as up to 3 or 4 weekly dosages in 3 to 4 weekly cycles, or once a month (or every three-four weeks) schedules that be applied with or without the parallel treatment with the appropriate standard-of-care protocols."}, "[3]": {"test_system": "MiaPaca-2", "experiment": "in vitro cell culture sensitivity in anoxic conditions", "format": "cell-based, human"}}}
{"compound": "CCN1CCN(C(=O)c2cc(N(CCBr)CCOS(C)(=O)=O)c(S(C)(=O)=O)cc2[N+](=O)[O-])CC1.CS(=O)(=O)O", "note": "[Cpd.11 Ms, 4-(5-((2-bromoethyl) (2-((methylsulfonyl)oxy)ethyl)amino)-4-(methylsulfonyl)-2-nitrobenzoyl)-1-ethylpiperazin-1-ium methanesulfonate]", "values": [{"measurement": "hypoxic cytotoxic ratio", "setting": "[1]; across cell lines", "value": "≥ 10"}, {"measurement": "cytotoxicity against cancer cell lines resistant to cisplatin and/or chlorambucil", "setting": "[1]; pre-clinical models", "value": "highly cytotoxic"}, {"measurement": "corresponding level in human subjects of the rat dosage", "setting": "[2]; from 400 mg/kg in the rat", "value": 2360, "unit": "mg/m^2"}, {"measurement": "dosage at which potential haematological toxicity (bone marrow, thymus, lymph nodes) can be minimized", "setting": "[2]; rat, intravenous, QDx3 in a 3 weekly cycle", "value": "≤ 400", "unit": "mg/kg"}, {"measurement": "sensitivity in anoxic conditions in vitro", "setting": "[3]", "value": "highly Cpd.11 Ms-sensitive"}]}
